The values that follow come from ChEMBL document CHEMBL2321805, “N-methyldihydroquinazolinone derivatives of Retro-2 with enhanced efficacy against Shiga toxin” (J Med Chem, 2013).

Activity calls are given as the source filed them. The rule behind the calls is not given here.

In assay [1] the test system is HeLa. Briefly: Cytoprotective activity against shiga toxin-induced cytotoxicity in human HeLa cells at 30 uM incubated for 4 hrs prior to shiga toxin addition measured after 20 hrs by liquid scintillation counting analysis relative to Retro-2. Format: functional.
The subject of assay [2] is HeLa. Briefly: Cytoprotective activity against shiga toxin-induced cytotoxicity in human HeLa cells at 30 uM incubated for 4 hrs prior to shiga toxin addition measured after 20 hrs by liquid scintillation counting analysis. The assay is classed as functional, cell-based.

As for `Cc1ccc(C2N(C)c3ccccc3C(=O)N2c2ccccc2C(F)(F)F)s1` (racemic), in the assay with HeLa [1], the Activity is recorded as 3%.
The same measure, in the same setting: under `Cc1ccc(C2Nc3ccccc3C(=O)N2c2cccc(Cl)c2)s1` (racemic) stands 54%.
On the same count and under the same terms, under `Cc1ccc(C2Nc3ccccc3C(=O)N2C(C)C)s1` (racemic) stands 0%.
`Cc1ccc(C2Nc3ccccc3C(=O)N2c2ccccc2Cl)s1` (racemic) yielded an Activity with HeLa [1] of 211%. Further, the EC50 with HeLa [2] is 14.8 µM.
For the compound `CN1c2ccccc2C(=O)N(c2ccccc2)C1c1ccc(-c2cccs2)s1` (racemic), the Activity with HeLa [1] is listed as 84%.
Still for that read-out and setting: the value for `Cc1ccc(C2N(C)c3ccccc3C(=O)N2c2ccccc2[N+](=O)[O-])s1` (racemic) was 33%.
`CSc1ccc(C2Nc3ccccc3C(=O)N2c2ccccc2)s1` (racemic): the Activity with HeLa [1] is given as 249%. The same compound registered an EC50 in the assay with HeLa [2] of 7.8 µM.
`CN1c2ccccc2C(=O)N(c2ccccc2)C1c1ccc(Br)s1` (racemic) came in with an Activity with HeLa [1] of 118%. For the same compound, it took 3.4 µM to reach a half-maximal effect in the assay with HeLa [2] (EC50).
On to `Cc1ccc(C2Nc3ccccc3C(=O)N2c2cccc(Br)c2)s1` (racemic), for which the Activity in the assay on HeLa [1] was found to be 0%.
In the case of `Cc1ccc(C2Nc3c(C)cccc3C(=O)N2c2ccccc2)s1` (racemic), the Activity with HeLa [1] amounted to 4%.
Still for that read-out and setting: the value for `Cc1ccc2c(c1)C(=O)N(c1ccccc1)C(c1ccc(C)s1)N2` (racemic) was 11.2%; that for `CCC(C)N1C(=O)c2ccccc2NC1c1ccc(C)s1` (racemic) was 0%.
Still for that read-out and setting: under `O=C1c2ccccc2NC(c2cccs2)N1c1ccccc1` (racemic) stands 0%.
Still for that read-out and setting: under `CN1c2ccccc2C(=O)N(c2ccccc2)C1c1ccc(-c2ccc3[nH]ccc3c2)s1` (racemic) stands 0%; under `CN1c2ccccc2C(=O)N(c2ccccc2)C1c1ccc(-c2ccc(C#N)cc2)s1` (racemic), 0%.
For the compound `CN1c2ccccc2C(=O)N(c2ccccc2)C1c1ccc(-c2ccco2)s1` (racemic), in the assay on HeLa [1], the Activity turned out to be 140.4%. In the assay with HeLa [2], this compound registered an EC50 of 1.5 µM.
In the assay with HeLa [1], `CSc1ccccc1N1C(=O)c2ccccc2NC1c1ccc(C)s1` (racemic) yielded an Activity of 75%.
Take `CN1c2ccccc2C(=O)N(c2ccccc2)C1c1ccc(CCl)s1` (racemic): the Activity in the assay with HeLa [1] is recorded as 0%.
`Cc1ccc(C2Nc3ccccc3C(=O)N2C23CC4CC(CC(O)(C4)C2)C3)s1` (racemic) had an Activity in the assay on HeLa [1] of 0%.
On the same count and under the same terms, under `CCCc1ccc(C2Nc3ccccc3C(=O)N2c2ccccc2)s1` (racemic) stands 54%.
Regarding `Cc1ccc(C2Nc3ccccc3C(=O)N2c2ccc(C#N)cc2)s1` (racemic), the Activity in the assay with HeLa [1] amounted to 0%.
In the assay with HeLa [1], `O=C1c2ccccc2NC(c2ccc(-c3ccccc3)s2)N1c1ccccc1` (racemic) came in with an Activity of 287%. This compound also showed an EC50 in the assay with HeLa [2] of 3.7 µM.
In the assay with HeLa [1], `Cc1ccc(C2Nc3ccccc3C(=O)N2c2ccc(Cl)cc2)s1` (racemic) came in with an Activity of 0%.
Same read-out and setting: under `COc1cccc(C2Nc3ccccc3C(=O)N2c2ccccc2)c1` (racemic) stands 0%; under `CN1c2ccccc2C(=O)N(c2ccccc2)C1c1ccc(-c2ccoc2)s1` (racemic), 74.7%; under `Cc1ccc(C2N(C)c3ccccc3C(=O)N2c2ccccc2Br)s1` (racemic), 10.5%.
Still for that read-out and setting: under `Cc1ccc(C2Nc3ccccc3C(=O)N2c2ccncn2)s1` (racemic) stands 0.5%.
Consider `COc1ccc(CCN2C(=O)c3ccccc3NC2c2ccc(C)s2)cc1` (racemic), for which the Activity in the assay on HeLa [1] was 0%.
Take `CCCN1c2ccccc2C(=O)N(c2ccccc2)C1c1ccc(C)s1` (racemic): the Activity in the assay with HeLa [1] amounted to 0%.
`CC(=O)c1ccc(-c2ccc(C3N(C)c4ccccc4C(=O)N3c3ccccc3)s2)cc1` (racemic) had an Activity with HeLa [1] of 0.7%.
In turn, `Cc1ccsc1C1Nc2ccccc2C(=O)N1c1ccccc1` (racemic) showed an Activity in the assay on HeLa [1] of 0%.
Still for that read-out and setting: the value for `Cc1ccc(C2N(C)c3ccccc3C(=O)N2c2ccccc2)s1` (single isomer, unassigned; form 2) was “Active”; that for `Cc1ccc(C2Nc3ccccc3C(=O)N2[C@H]2C[C@@H]3CC[C@H]2C3)s1` (mixture of isomers) was 0%; that for `O=C1c2ccccc2NC(c2ccccc2)N1c1ccccc1` (racemic) was 0%.
Same read-out and setting: under `Cc1ccc(C2Nc3ccccc3C(=O)N2c2ccncc2)s1` (racemic) stands 0%.
Compound `COc1ccc(-c2ccc(C3N(C)c4ccccc4C(=O)N3c3ccccc3)s2)cc1OC` (racemic) had an Activity in the assay with HeLa [1] of 1.5%.
In the assay on HeLa [1], `CN1c2ccccc2C(=O)N(c2ccccc2)C1c1ccc(-c2ccccn2)s1` (racemic) registered an Activity of 94.6%.
Same read-out and setting: under `CCCCN1c2ccccc2C(=O)N(c2ccccc2)C1c1ccc(C)s1` (racemic) stands 0%.
The same measure, in the same setting: under `Cn1cc(C2Nc3ccccc3C(=O)N2c2ccccc2)c2ccccc21` (racemic) stands 0%.
On to `CN1c2ccccc2C(=O)N(c2ccccc2)C1c1ccc(Sc2ccccc2)s1` (racemic), for which the Activity with HeLa [1] was found to be 75.5%.
In the assay with HeLa [1], `CN1c2ccccc2C(=O)N(c2ccccc2)C1c1ccc(-c2ccc(Oc3ccccc3)cc2)s1` (racemic) showed an Activity of 15.7%.
Take `Cc1ccc(C2Nc3ccccc3C(=O)N2c2ccccc2Br)s1` (racemic): the Activity in the assay with HeLa [1] was found to be 0%.
The same measure, in the same setting: under `Cc1ccc(C2N(C)c3ccccc3C(=O)N2c2ccccc2C#N)s1` (racemic) stands 54%.
Same read-out and setting: the value for `CN1c2ccccc2C(=O)N(c2ccccc2)C1c1ccc(CNCc2ccccc2)s1` (racemic) was 6.2%; that for `CCN1c2ccccc2C(=O)N(c2ccccc2)C1c1ccc(C)s1` (racemic) was 2.9%; that for `CN1c2ccccc2C(=O)N(c2ccccc2)C1c1ccc(-c2cccc3ccccc23)s1` (racemic) was 0%.
Same read-out and setting: under `COC(=O)c1ccc(-c2ccc(C3N(C)c4ccccc4C(=O)N3c3ccccc3)s2)cc1` (racemic) stands 2.9%.
Regarding `Cc1ccc(C2N(C)c3ccccc3C(=O)N2c2ccccc2Sc2ccccc2)s1` (racemic), in the assay on HeLa [1], the Activity turned out to be 9.6%.
For `Cc1ccc(C2Nc3ccccc3C(=O)N2C2CCCCC2)s1` (racemic), in the assay on HeLa [1], the Activity worked out at 0%.
Same read-out and setting: under `Cc1csc(C2Nc3ccccc3C(=O)N2c2ccccc2)c1` (racemic) stands 1%; under `CN1c2ccccc2C(=O)N(c2ccccc2)C1c1ccc(CO)s1` (racemic), 0%; under `COc1ccc(-c2ccc(C3N(C)c4ccccc4C(=O)N3c3ccccc3)s2)cc1` (racemic), 26.2%.
On to `Cc1ccc(C2Nc3ccccc3C(=O)N2c2ccc(-c3ccccc3)cc2)s1` (racemic), for which, in the assay on HeLa [1], the Activity is on record as 0%.
Still for that read-out and setting: the value for `Cc1ccc(-c2ccc(C3N(C)c4ccccc4C(=O)N3c3ccccc3)s2)cc1[N+](=O)[O-]` (racemic) was 0%.
Still for that read-out and setting: the value for `Cc1ccc(C2N(c3ccccc3)C(=O)c3ccccc3N2C(=O)c2ccccc2)s1` (racemic) was 0%.
Still for that read-out and setting: the value for `CCCCN1C(=O)c2ccccc2NC1c1ccc(C)s1` (racemic) was 0%; that for `Cc1ccc(C2Nc3ccccc3C(=O)N2c2cccc(C(F)(F)F)c2)s1` (racemic) was 0%; that for `Cc1ccc(C2N(C)c3ccccc3C(=O)N2c2ccccc2)s1` (single isomer, unassigned; form 1) was “inactive”.
In the assay with HeLa [1], `Cc1ccc(C2N(C)c3ccccc3C(=O)N2c2ccccc2Cc2ccccc2)s1` (racemic) returned an Activity of 1%.
`Cc1ccc(C2Nc3ccccc3C(=O)N2c2ccc(Br)cc2)s1` (racemic): the Activity in the assay with HeLa [1] was 0%.
As to `CN1c2ccccc2C(=O)N(c2ccccc2)C1c1ccc(-c2cccc([N+](=O)[O-])c2)s1` (racemic), in the assay with HeLa [1], the Activity was determined as 0%.
On the same count and under the same terms, the value for `Cc1ccc(C2N(C)c3ccccc3C(=O)N2c2ccccc2Oc2ccccc2)s1` (racemic) was 23%.
Same read-out and setting: the value for `Cc1ccc(C2Nc3cc(F)ccc3C(=O)N2c2ccccc2)s1` (racemic) was 0%.
Still for that read-out and setting: the value for `CN(C)c1ccc(C2Nc3ccccc3C(=O)N2c2ccccc2)cc1` (racemic) was 48%.
Compound `CN1c2ccccc2C(=O)N(c2ccccc2)C1c1ccc(C=O)s1` (racemic) gave an Activity in the assay with HeLa [1] of 0%.
`CN1c2ccccc2C(=O)N(c2ccccc2)C1c1ccc(C#N)s1` (racemic) displayed an Activity in the assay with HeLa [1] of 0%.
`COc1cc(-c2ccc(C3N(C)c4ccccc4C(=O)N3c3ccccc3)s2)cc(OC)c1OC` (racemic) had an Activity with HeLa [1] of 0%.
Same read-out and setting: the value for `CN1c2ccccc2C(=O)N(c2ccccc2)C1c1ccc(-c2csc3ccccc23)s1` (racemic) was 0%; that for `Cc1ccc(C2N(C)c3ccccc3C(=O)N2c2ccccc2OC(F)(F)F)s1` (racemic) was 4.4%.
`COc1ccc(C2Nc3ccccc3C(=O)N2c2ccccc2)cc1` (racemic): in the assay with HeLa [1], the Activity is 10%.
Still for that read-out and setting: under `O=C1c2ccccc2NC(c2cccnc2)N1c1ccccc1` (racemic) stands 0%; under `CN1c2ccccc2C(=O)N(c2ccccc2)C1c1ccc(-c2ccc3ccccc3c2)s1` (racemic), 9.7%; under `CN1c2ccccc2C(=O)N(c2ccccc2)C1c1ccc(-n2cccc2)s1` (racemic), 12%.
`Cc1ccc(C2Nc3ccccc3C(=O)N2c2cccnc2)s1` (racemic): the Activity in the assay with HeLa [1] was 0%.
On the same count and under the same terms, under `COc1ccc2c(c1)C(=O)N(c1ccccc1)C(c1ccc(C)s1)N2` (racemic) stands 2%; under `Cc1ccc(C2N(C)c3ccccc3C(=O)N2c2ccccc2-c2ccccc2)s1` (racemic), 99%; under `Cc1ccc(C2N(C)c3ccccc3C(=O)N2c2ccccc2OCc2ccccc2)s1` (racemic), 9.8%.
On to `Cc1ccc(C2Nc3ccccc3C(=O)N2Cc2ccccc2)s1` (racemic), for which the Activity with HeLa [1] was determined as 0%.
`Cc1ccc(C2N(Cc3ccccc3)c3ccccc3C(=O)N2c2ccccc2)s1` (racemic) gave an Activity in the assay on HeLa [1] of 1%.
